Measurements taken from US8637523B2, “Compounds for the reduction of beta-amyloid production” (Bristol-Myers Squibb Company, priority 2010, dated 2014).
Read-outs that look alike come from different tables or passages of the source.

Tested on: Aβ42
Assay: Cellular assay for inhibition of Aβ1-42 production (H4 APP751 SWE clone 8.20)
Assay type: cell-based
Conditions: H4 APP751 SWE clone 8.20 cells, 19 h incubation
Outline: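 Aβ42 read by time-resolved FRET using neoepitope antibody 565 (0.8 ng/well) paired with N-terminal 26D6 (75 ng/well), incubated overnight at 4 °C, then IC50 curve fitting. Cells: H4 APP751 Swedish clone 8.20, exposed to compound for 19 h at 37 °C.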

[1] = read-out: Activity Rating (Aβ42 cellular IC50), class symbol
[2] = 19 h, read-out: Activity Rating (Aβ42 cellular IC50), class symbol
[3] = unit inferred, read-out: Activity Rating (Aβ42 cellular IC50), numeric value
[4] = 19 h, unit inferred, read-out: Activity Rating (Aβ42 cellular IC50), numeric value

Compound	IC50 [1] [nM]	IC50 [2] [nM]	also measured
N#Cc1ccc2cc1OC/C=C/CCc1nc(nc3c1CCC3c1ccccc1)N2 (centres unmarked) [Example 37B, (11E)-7-cyano-18-phenyl-10,13,14,16,17,18-hexahydro-15,2-(azeno)-8,4-(metheno)cyclopenta[h][1,10,12]oxadiazacycloheptadecine]	10 to 100	–	–
N#Cc1ccc2cc1OCCCCCc1nc(nc3c1CCC3c1ccccc1)N2 (centres unmarked) [Example 38B, 7-cyano-18-phenyl-10,11,12,13,14,16,17,18-octahydro-15,2-(azeno)-8,4-(metheno)cyclopenta[h][1,10,12]oxadiazacycloheptadecine]	–	100 to 1000	–
Cc1ncn(-c2ccc3cc2OCC=CCNc2nc(nc4c2CCC4c2ccccc2)N3)n1 (centres unmarked) [Example 39A, (11Z)-7-(3-methyl-1H-1,2,4-triazol-1-yl)-18-phenyl-10,13,14,16,17,18-hexahydro-15,2-(azeno)-8,4-(metheno)cyclopenta[h][1,6,10,12]oxatriazacycloheptadecine]	–	–	IC50 [3]: 4 nM
Cc1ncn(-c2ccc3cc2OCC=CCNc2nc(nc4c2CCC4c2ccccc2)N3)n1 (centres unmarked) [Example 39B, (11Z)-7-(3-methyl-1H-1,2,4-triazol-1-yl)-18-phenyl-10,13,14,16,17,18-hexahydro-15,2-(azeno)-8,4-(metheno)cyclopenta[h][1,6,10,12]oxatriazacycloheptadecine]	10 to 100	–	–
Cc1ncnn1-c1ccc2cc1OC/C=C\CN(C)c1nc(nc3c1CCC3c1ccccc1)N2 (centres unmarked) [Example 41B, (11Z)-14-methyl-7-(5-methyl-1H-1,2,4-triazol-1-yl)-18-phenyl-10,13,14,16,17,18-hexahydro-15,2-(azeno)-8,4-(metheno)cyclopenta[h][1,6,10,12]oxatriazacycloheptadecine]	–	10 to 100	–
Cc1ncnn1-c1ccc2cc1OCC=CCNc1nc(nc3c1CCC3c1ccccc1)N2 (centres unmarked) [Example 42A, (11Z)-7-(5-methyl-1H-1,2,4-triazol-1-yl)-18-phenyl-10,13,14,16,17,18-hexahydro-15,2-(azeno)-8,4-(metheno)cyclopenta[h][1,6,10,12]oxatriazacycloheptadecine]	–	–	IC50 [3]: 6.6 nM
Cc1ncnn1-c1ccc2cc1OCC=CCNc1nc(nc3c1CCC3c1ccccc1)N2 (centres unmarked) [Example 42B, (11Z)-7-(5-methyl-1H-1,2,4-triazol-1-yl)-18-phenyl-10,13,14,16,17,18-hexahydro-15,2-(azeno)-8,4-(metheno)cyclopenta[h][1,6,10,12]oxatriazacycloheptadecine]	10 to 100	–	–
Cc1ncnn1-c1ccc2cc1OCC=CCNc1nc(nc3c1CCC3c1ccccc1)N2 (centres unmarked) [Example 43A, (11E)-7-(5-methyl-1H-1,2,4-triazol-1-yl)-18-phenyl-10,13,14,16,17,18-hexahydro-15,2-(azeno)-8,4-(metheno)cyclopenta[h][1,6,10,12]oxatriazacycloheptadecine]	< 10	–	–
Cc1ncnn1-c1ccc2cc1OCC=CCNc1nc(nc3c1CCC3c1ccccc1)N2 (centres unmarked) [Example 43B, (11E)-7-(5-methyl-1H-1,2,4-triazol-1-yl)-18-phenyl-10,13,14,16,17,18-hexahydro-15,2-(azeno)-8,4-(metheno)cyclopenta[h][1,6,10,12]oxatriazacycloheptadecine]	–	–	IC50 [3]: 53 nM
Cc1ncn(-c2ccc3cc2OC/C=C\CN(C)c2nc(nc4c2CCC4c2ccccc2)N3)n1 (centres unmarked) [Example 44A, (11Z)-14-methyl-7-(3-methyl-1H-1,2,4-triazol-1-yl)-18-phenyl-10,13,14,16,17,18-hexahydro-15,2-(azeno)-8,4-(metheno)cyclopenta[h][1,6,10,12]oxatriazacycloheptadecine]	–	< 10	–
Cc1ncn(-c2ccc3cc2OC/C=C\CN(C)c2nc(nc4c2CCC4c2ccccc2)N3)n1 (centres unmarked) [Example 44B, (11Z)-14-methyl-7-(3-methyl-1H-1,2,4-triazol-1-yl)-18-phenyl-10,13,14,16,17,18-hexahydro-15,2-(azeno)-8,4-(metheno)cyclopenta[h][1,6,10,12]oxatriazacycloheptadecine]	–	–	IC50 [4]: 30 nM
Cc1ncn(-c2ccc3cc2OC/C=C\CNc2nc(nc4c2CCC4c2ccc(F)cc2)N3)n1 (centres unmarked) [Example 45B, (11Z)-18-(4-fluorophenyl)-7-(3-methyl-1H-1,2,4-triazol-1-yl)-10,13,14,16,17,18-hexahydro-15,2-(azeno)-8,4-(metheno)cyclopenta[h][1,6,10,12]oxatriazacycloheptadecine]	10 to 100	–	–
Cc1ncn(-c2ccc3cc2OCC=CCNc2nc(nc4c2CCC4c2ccc(F)cc2)N3)n1 (centres unmarked) [Example 46B, (11E)-18-(4-fluorophenyl)-7-(3-methyl-1H-1,2,4-triazol-1-yl)-10,13,14,16,17,18-hexahydro-15,2-(azeno)-8,4-(metheno)cyclopenta[h][1,6,10,12]oxatriazacycloheptadecine]	100 to 1000	–	–
Cc1ncnn1-c1ccc2cc1OCCCCNc1nc(nc3c1CCC3c1ccccc1)N2 (centres unmarked) [Example 47A, 7-(5-methyl-1H-1,2,4-triazol-1-yl)-18-phenyl-10,11,12,13,14,16,17,18-octahydro-15,2-(azeno)-8,4-(metheno)cyclopenta[h][1,6,10,12]oxatriazacycloheptadecine]	–	–	IC50 [4]: 5.6 nM
Cc1ncnn1-c1ccc2cc1OCCCCNc1nc(nc3c1CCC3c1ccccc1)N2 (centres unmarked) [Example 47B, 7-(5-methyl-1H-1,2,4-triazol-1-yl)-18-phenyl-10,11,12,13,14,16,17,18-octahydro-15,2-(azeno)-8,4-(metheno)cyclopenta[h][1,6,10,12]oxatriazacycloheptadecine]	–	10 to 100	–
Cc1ncnn1-c1ccc2cc1OCCCCN(C)c1nc(nc3c1CCC3c1ccccc1)N2 (centres unmarked) [Example 48A, 14-methyl-7-(5-methyl-1H-1,2,4-triazol-1-yl)-18-phenyl-10,11,12,13,14,16,17,18-octahydro-15,2-(azeno)-8,4-(metheno)cyclopenta[h][1,6,10,12]oxatriazacycloheptadecine]	–	< 10	–
Cc1ncnn1-c1ccc2cc1OCCCCN(C)c1nc(nc3c1CCC3c1ccccc1)N2 (centres unmarked) [Example 48B, 14-methyl-7-(5-methyl-1H-1,2,4-triazol-1-yl)-18-phenyl-10,11,12,13,14,16,17,18-octahydro-15,2-(azeno)-8,4-(metheno)cyclopenta[h][1,6,10,12]oxatriazacycloheptadecine]	–	–	IC50 [4]: 88 nM
Cc1ncn(-c2ccc3cc2OCCCCNc2nc(nc4c2CCC4c2ccccc2)N3)n1 (centres unmarked) [Example 49A, 7-(3-methyl-1H-1,2,4-triazol-1-yl)-18-phenyl-10,11,12,13,14,16,17,18-octahydro-15,2-(azeno)-8,4-(metheno)cyclopenta[h][1,6,10,12]oxatriazacycloheptadecine]	< 10	–	–
Cc1ncn(-c2ccc3cc2OCCCCNc2nc(nc4c2CCC4c2ccccc2)N3)n1 (centres unmarked) [Example 49B, 7-(3-methyl-1H-1,2,4-triazol-1-yl)-18-phenyl-10,11,12,13,14,16,17,18-octahydro-15,2-(azeno)-8,4-(metheno)cyclopenta[h][1,6,10,12]oxatriazacycloheptadecine]	–	10 to 100	–
Cc1ncn(-c2ccc3cc2OCCCCN(C)c2nc(nc4c2CCC4c2ccccc2)N3)n1 (centres unmarked) [Example 50A, 14-methyl-7-(3-methyl-1H-1,2,4-triazol-1-yl)-18-phenyl-10,11,12,13,14,16,17,18-octahydro-15,2-(azeno)-8,4-(metheno)cyclopenta[h][1,6,10,12]oxatriazacycloheptadecine]	< 10	–	–
Cc1ncn(-c2ccc3cc2OCCCCN(C)c2nc(nc4c2CCC4c2ccccc2)N3)n1 (centres unmarked) [Example 50B, 14-methyl-7-(3-methyl-1H-1,2,4-triazol-1-yl)-18-phenyl-10,11,12,13,14,16,17,18-octahydro-15,2-(azeno)-8,4-(metheno)cyclopenta[h][1,6,10,12]oxatriazacycloheptadecine]	–	10 to 100	–
Cc1ncn(-c2ccc3cc2OC/C=C/CNc2nc(nc4c2CCC4c2ccc(F)cc2F)N3)n1 (centres unmarked) [Example 52A, (11E)-18-(2,4-difluorophenyl)-7-(3-methyl-1H-1,2,4-triazol-1-yl)-10,13,14,16,17,18-hexahydro-15,2-(azeno)-8,4-(metheno)cyclopenta[h][1,6,10,12]oxatriazacycloheptadecine]	–	–	IC50 [3]: 11 nM
Cc1ncn(-c2ccc3cc2OC/C=C/CNc2nc(nc4c2CCC4c2ccc(F)cc2F)N3)n1 (centres unmarked) [Example 52B, (11E)-18-(2,4-difluorophenyl)-7-(3-methyl-1H-1,2,4-triazol-1-yl)-10,13,14,16,17,18-hexahydro-15,2-(azeno)-8,4-(metheno)cyclopenta[h][1,6,10,12]oxatriazacycloheptadecine]	10 to 100	–	–
Cc1ncnn1-c1ccc2cc1OCC=CCNc1nc(nc3c1CCC3c1ccc(F)cc1F)N2 (centres unmarked) [Example 54A, (11E)-18-(2,4-difluorophenyl)-7-(5-methyl-1H-1,2,4-triazol-1-yl)-10,13,14,16,17,18-hexahydro-15,2-(azeno)-8,4-(metheno)cyclopenta[h][1,6,10,12]oxatriazacycloheptadecine]	< 10	–	–
Cc1ncnn1-c1ccc2cc1OCC=CCNc1nc(nc3c1CCC3c1ccc(F)cc1F)N2 (centres unmarked) [Example 54B, (11E)-18-(2,4-difluorophenyl)-7-(5-methyl-1H-1,2,4-triazol-1-yl)-10,13,14,16,17,18-hexahydro-15,2-(azeno)-8,4-(metheno)cyclopenta[h][1,6,10,12]oxatriazacycloheptadecine]	10 to 100	–	–
Cc1ncn(-c2ccc3cc2OCCN(C)CCNc2nc(nc4c2CCC4c2ccc(F)cc2)N3)n1 (centres unmarked) [Example 56B, 19-(4-fluorophenyl)-12-methyl-7-(3-methyl-1H-1,2,4-triazol-1-yl)-11,12,13,14,15,17,18,19-octahydro-10H-16,2-(azeno)-8,4-(metheno)cyclopenta[i][1,4,7,11,13]oxatetraazacyclooctadecine]	–	10 to 100	–
